system: Pseudoperonospora cubensis (downy mildew); test: Plant pathology screen (Test 1), downy mildew on squash; conditions: foliar, read-out: DOWN MDEW control rating
Description: The test compounds were formulated for application by dissolving 50 mg of the compound into 1.25 ml of solvent. The solvent was prepared by mixing 50 ml of "Tween 20" (polyoxyethylene (20) sorbitan monolaurate emulsifier) with 475 ml of acetone and 475 ml of ethanol. The solvent/compound solution was diluted to 125 ml with deionized water. The resulting formulation contains 400 ppm test chemical. Lower concentrations were obtained by serial dilution with the solvent-surfactant mixture.
The formulated test compounds were applied by foliar spray. The following plant pathogens and their corresponding plants were employed.
The formulated technical compounds were sprayed on all foliar surfaces of the host plants (or cut berry) to past run-off. Single pots of each host plant were placed on raised, revolving pedestals in a fume hood. Test solutions were sprayed on all foliar surfaces. All treatments were allowed to dry and the plants were inoculated with the appropriate pathogens within 2-4 hours.
The effectiveness of test compounds in controlling disease was rated using the following scale.

Structure (SMILES)	pest or weed control at 400 µg/mL [%]
Cc1cc2c(OCCc3ccc(C(F)(F)F)cc3)ncnc2o1 [Example 42, 6-methyl-4-[2-[4-(trifluoromethyl)phenyl]ethoxy]furo[2,3-d]pyrimidine]	90 to 100
Cc1oc2ncnc(Oc3ccccc3)c2c1C [Example 64, 5,6-dimethyl-4-phenoxyfuro[2,3-d]pyrimidine]	90 to 100
Cc1oc2ncnc(NCCc3ccc(Cl)cc3)c2c1C [Example 10, N-(2-(4-chlorophenyl)ethyl]-5,6-dimethylfuro[2,3-d]pyrimidin-4-amine]	20 to 89

system: melon aphids (Aphis gossvpii Glover); test: Mite/insect screen, melon aphids; format: in vivo; conditions: Aphis; rate 200 ppm, sprayed leaves; read-out: MA results (percent mortality)
Method in brief: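 Percent mortality of melon aphids was assessed after standard exposure periods. Infested squash cotyledons had been sprayed on both leaf surfaces until runoff at 10 psi with water-diluted test solutions. Compounds were formulated in acetone/alcohol (50:50) containing emulsifiers.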

Structure (SMILES)	mortality at 200 ppm [%]
Cc1cc2c(OCCc3ccc(C(F)(F)F)cc3)ncnc2o1 [Example 42, 6-methyl-4-[2-[4-(trifluoromethyl)phenyl]ethoxy]furo[2,3-d]pyrimidine]	100
Cc1oc2ncnc(Oc3ccccc3)c2c1C [Example 64, 5,6-dimethyl-4-phenoxyfuro[2,3-d]pyrimidine]	0
Cc1oc2ncnc(NCCc3ccc(Cl)cc3)c2c1C [Example 10, N-(2-(4-chlorophenyl)ethyl]-5,6-dimethylfuro[2,3-d]pyrimidin-4-amine]	0

same assay, conditions: Aphis; rate 400 ppm, sprayed leaves; read-out: MA results (percent mortality)

Structure (SMILES)	mortality at 400 ppm [%]
Cc1cc2c(OCCc3ccc(C(F)(F)F)cc3)ncnc2o1 [Example 42, 6-methyl-4-[2-[4-(trifluoromethyl)phenyl]ethoxy]furo[2,3-d]pyrimidine]	100
Cc1oc2ncnc(Oc3ccccc3)c2c1C [Example 64, 5,6-dimethyl-4-phenoxyfuro[2,3-d]pyrimidine]	0
Cc1oc2ncnc(NCCc3ccc(Cl)cc3)c2c1C [Example 10, N-(2-(4-chlorophenyl)ethyl]-5,6-dimethylfuro[2,3-d]pyrimidin-4-amine]	0

system: Twospotted spider mites (Tetranychus urticae Koch); test: Mite/insect screen, twospotted spider mites; format: in vivo; conditions: Tetranychus urticae, rate 200 ppm, sprayed leaves; read-out: SM results (percent mortality)
Method in brief: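 Percent mortality, along with phytotoxicity, was read after standard exposure periods. Beforehand, mites established on both surfaces of squash cotyledons received a runoff spray (10 psi) of water-diluted compound formulated in acetone/alcohol with sulfonate/nonionic emulsifiers.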

Structure (SMILES)	mortality at 200 ppm [%]
Cc1cc2c(OCCc3ccc(C(F)(F)F)cc3)ncnc2o1 [Example 42, 6-methyl-4-[2-[4-(trifluoromethyl)phenyl]ethoxy]furo[2,3-d]pyrimidine]	0
Cc1oc2ncnc(Oc3ccccc3)c2c1C [Example 64, 5,6-dimethyl-4-phenoxyfuro[2,3-d]pyrimidine]	0
Cc1oc2ncnc(NCCc3ccc(Cl)cc3)c2c1C [Example 10, N-(2-(4-chlorophenyl)ethyl]-5,6-dimethylfuro[2,3-d]pyrimidin-4-amine]	0

same assay, conditions: Tetranychus urticae, rate 400 ppm, sprayed leaves; read-out: SM results (percent mortality)

Structure (SMILES)	mortality at 400 ppm [%]
Cc1cc2c(OCCc3ccc(C(F)(F)F)cc3)ncnc2o1 [Example 42, 6-methyl-4-[2-[4-(trifluoromethyl)phenyl]ethoxy]furo[2,3-d]pyrimidine]	100
Cc1oc2ncnc(Oc3ccccc3)c2c1C [Example 64, 5,6-dimethyl-4-phenoxyfuro[2,3-d]pyrimidine]	0
Cc1oc2ncnc(NCCc3ccc(Cl)cc3)c2c1C [Example 10, N-(2-(4-chlorophenyl)ethyl]-5,6-dimethylfuro[2,3-d]pyrimidin-4-amine]	0

system: Southern corn rootworm (Diabrotica undecimpuctata howardi Barber); test: Mite/insect screen, corn rootworm; format: in vivo; conditions: Diabrotica; CRW rate 12.00 ppm, soil; read-out: CRW results (percent mortality)
Method in brief: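 Five 2-3 instar larvae per cup were placed on sandy soil (15 g, with presoaked corn seed) treated 6–12 h earlier with 1 mL test solution, an emulsified acetone/alcohol formulation diluted in water. Cups kept at 23° C; mortality and phytotoxicity assessed as percent after standard exposures.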

Structure (SMILES)	mortality at 12 ppm [%]
Cc1cc2c(OCCc3ccc(C(F)(F)F)cc3)ncnc2o1 [Example 42, 6-methyl-4-[2-[4-(trifluoromethyl)phenyl]ethoxy]furo[2,3-d]pyrimidine]	0
Cc1oc2ncnc(Oc3ccccc3)c2c1C [Example 64, 5,6-dimethyl-4-phenoxyfuro[2,3-d]pyrimidine]	0
Cc1oc2ncnc(NCCc3ccc(Cl)cc3)c2c1C [Example 10, N-(2-(4-chlorophenyl)ethyl]-5,6-dimethylfuro[2,3-d]pyrimidin-4-amine]	0

same assay, conditions: Diabrotica; CRW rate 24.00 ppm, soil; read-out: CRW results (percent mortality)

Structure (SMILES)	mortality at 24 ppm [%]
Cc1cc2c(OCCc3ccc(C(F)(F)F)cc3)ncnc2o1 [Example 42, 6-methyl-4-[2-[4-(trifluoromethyl)phenyl]ethoxy]furo[2,3-d]pyrimidine]	0
Cc1oc2ncnc(Oc3ccccc3)c2c1C [Example 64, 5,6-dimethyl-4-phenoxyfuro[2,3-d]pyrimidine]	0
Cc1oc2ncnc(NCCc3ccc(Cl)cc3)c2c1C [Example 10, N-(2-(4-chlorophenyl)ethyl]-5,6-dimethylfuro[2,3-d]pyrimidin-4-amine]	0

system: southern armyworm (Spodopetra eridania Cramer); test: Mite/insect screen, Southern armyworm; format: in vivo; conditions: Spodoptera eridania; rate 200 ppm, sprayed leaves; read-out: SAW results (percent mortality)
Method in brief: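 Southern armyworm larvae placed in Petri dishes with two excised squash leaves that had been sprayed to runoff (10 psi) with emulsified compound and air-dried for 1 h. Mortality in percent recorded after a standard exposure period; formulation acetone/alcohol plus Toximul R and S, water-diluted.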

Structure (SMILES)	mortality at 200 ppm [%]
Cc1cc2c(OCCc3ccc(C(F)(F)F)cc3)ncnc2o1 [Example 42, 6-methyl-4-[2-[4-(trifluoromethyl)phenyl]ethoxy]furo[2,3-d]pyrimidine]	0
Cc1oc2ncnc(Oc3ccccc3)c2c1C [Example 64, 5,6-dimethyl-4-phenoxyfuro[2,3-d]pyrimidine]	0
Cc1oc2ncnc(NCCc3ccc(Cl)cc3)c2c1C [Example 10, N-(2-(4-chlorophenyl)ethyl]-5,6-dimethylfuro[2,3-d]pyrimidin-4-amine]	0

same assay, conditions: Spodoptera eridania; rate 400 ppm, sprayed leaves; read-out: SAW results (percent mortality)

Structure (SMILES)	mortality at 400 ppm [%]
Cc1cc2c(OCCc3ccc(C(F)(F)F)cc3)ncnc2o1 [Example 42, 6-methyl-4-[2-[4-(trifluoromethyl)phenyl]ethoxy]furo[2,3-d]pyrimidine]	0
Cc1oc2ncnc(Oc3ccccc3)c2c1C [Example 64, 5,6-dimethyl-4-phenoxyfuro[2,3-d]pyrimidine]	0
Cc1oc2ncnc(NCCc3ccc(Cl)cc3)c2c1C [Example 10, N-(2-(4-chlorophenyl)ethyl]-5,6-dimethylfuro[2,3-d]pyrimidin-4-amine]	0

system: Erysiphe graminis tritici (powdery mildew); test: Plant pathology screen (Test 1), powdery mildew on wheat; conditions: Blumeria graminis, in Triticum aestivum, foliar, read-out: POWD MDEW control rating

Structure (SMILES)	pest or weed control at 400 µg/mL [%]
Cc1cc2c(OCCc3ccc(C(F)(F)F)cc3)ncnc2o1 [Example 42, 6-methyl-4-[2-[4-(trifluoromethyl)phenyl]ethoxy]furo[2,3-d]pyrimidine]	20 to 89
Cc1oc2ncnc(Oc3ccccc3)c2c1C [Example 64, 5,6-dimethyl-4-phenoxyfuro[2,3-d]pyrimidine]	90 to 100
Cc1oc2ncnc(NCCc3ccc(Cl)cc3)c2c1C [Example 10, N-(2-(4-chlorophenyl)ethyl]-5,6-dimethylfuro[2,3-d]pyrimidin-4-amine]	0 to 19

system: Botrytis cinerea (gray mold); test: Plant pathology screen (Test 1), gray mold on grape berries; conditions: read-out: GRAY MOLD control rating

Structure (SMILES)	pest or weed control at 400 µg/mL [%]
Cc1cc2c(OCCc3ccc(C(F)(F)F)cc3)ncnc2o1 [Example 42, 6-methyl-4-[2-[4-(trifluoromethyl)phenyl]ethoxy]furo[2,3-d]pyrimidine]	0 to 19
Cc1oc2ncnc(Oc3ccccc3)c2c1C [Example 64, 5,6-dimethyl-4-phenoxyfuro[2,3-d]pyrimidine]	0 to 19
Cc1oc2ncnc(NCCc3ccc(Cl)cc3)c2c1C [Example 10, N-(2-(4-chlorophenyl)ethyl]-5,6-dimethylfuro[2,3-d]pyrimidin-4-amine]	0 to 19

system: Pyricularia oryzae (rice blast); test: whole plant or invertebrate; format: in vivo; conditions: foliar, read-out: RICE BLAST control rating

Structure (SMILES)	pest or weed control at 400 µg/mL [%]
Cc1cc2c(OCCc3ccc(C(F)(F)F)cc3)ncnc2o1 [Example 42, 6-methyl-4-[2-[4-(trifluoromethyl)phenyl]ethoxy]furo[2,3-d]pyrimidine]	20 to 89
Cc1oc2ncnc(Oc3ccccc3)c2c1C [Example 64, 5,6-dimethyl-4-phenoxyfuro[2,3-d]pyrimidine]	0 to 19
Cc1oc2ncnc(NCCc3ccc(Cl)cc3)c2c1C [Example 10, N-(2-(4-chlorophenyl)ethyl]-5,6-dimethylfuro[2,3-d]pyrimidin-4-amine]	90 to 100

system: Puccinia recondita tritici (leaf rust); test: Plant pathology screen (Test 1), leaf rust on wheat; conditions: in Triticum aestivum, foliar, read-out: LEAF RUST control rating

Structure (SMILES)	pest or weed control at 400 µg/mL [%]
Cc1cc2c(OCCc3ccc(C(F)(F)F)cc3)ncnc2o1 [Example 42, 6-methyl-4-[2-[4-(trifluoromethyl)phenyl]ethoxy]furo[2,3-d]pyrimidine]	90 to 100
Cc1oc2ncnc(Oc3ccccc3)c2c1C [Example 64, 5,6-dimethyl-4-phenoxyfuro[2,3-d]pyrimidine]	20 to 89
Cc1oc2ncnc(NCCc3ccc(Cl)cc3)c2c1C [Example 10, N-(2-(4-chlorophenyl)ethyl]-5,6-dimethylfuro[2,3-d]pyrimidin-4-amine]	20 to 89
